pIC50, pKi: −log10 of the molar value. Where two headings read alike, the source gives them in different places.
How the values were obtained:
Format in all cases: biochemical
FAP = FAP (Homo sapiens (Human), UniProt Q12884); assay: FAP inhibition assay (recombinant enzyme, Z-Gly-Pro-AMC substrate); conditions: for pKi: read-out: FAP Ki
Description: (§1) PSMA binding affinities of the compounds were determined using a competitive inhibition assay as previously reported. […] FAP, prolyl endopeptidase (PREP), and […] (DPPIV) inhibition assays: Recombinant enzymes (FAP, PREP, DPPIV) were purchased from R&D Systems (Minneapolis, MN). […] Z-Gly-Pro-AMC was used as a substrate for FAP and PREP. H-Gly-Pro-AMC was used as a substrate for DPPIV. The recombinant enzyme (0.4 μg/mL) was incubated with varying amounts of the test articles in the presence of the designated substrate (80 μM) for 10 min at room temperature. Fluorescence intensity was measured with 380 nm excitation and 460 nm emission using the Cytation 5 Cell Imaging Multi-Mode Reader (BioTek, Winooski, VT). IC50 and Ki values were obtained using a sigmoidal dose-response function.

PREP = PREP (Homo sapiens (Human), UniProt P48147); assay: PREP inhibition assay (recombinant enzyme, Z-Gly-Pro-AMC substrate)
Chain of PREP (P48147 whole entry): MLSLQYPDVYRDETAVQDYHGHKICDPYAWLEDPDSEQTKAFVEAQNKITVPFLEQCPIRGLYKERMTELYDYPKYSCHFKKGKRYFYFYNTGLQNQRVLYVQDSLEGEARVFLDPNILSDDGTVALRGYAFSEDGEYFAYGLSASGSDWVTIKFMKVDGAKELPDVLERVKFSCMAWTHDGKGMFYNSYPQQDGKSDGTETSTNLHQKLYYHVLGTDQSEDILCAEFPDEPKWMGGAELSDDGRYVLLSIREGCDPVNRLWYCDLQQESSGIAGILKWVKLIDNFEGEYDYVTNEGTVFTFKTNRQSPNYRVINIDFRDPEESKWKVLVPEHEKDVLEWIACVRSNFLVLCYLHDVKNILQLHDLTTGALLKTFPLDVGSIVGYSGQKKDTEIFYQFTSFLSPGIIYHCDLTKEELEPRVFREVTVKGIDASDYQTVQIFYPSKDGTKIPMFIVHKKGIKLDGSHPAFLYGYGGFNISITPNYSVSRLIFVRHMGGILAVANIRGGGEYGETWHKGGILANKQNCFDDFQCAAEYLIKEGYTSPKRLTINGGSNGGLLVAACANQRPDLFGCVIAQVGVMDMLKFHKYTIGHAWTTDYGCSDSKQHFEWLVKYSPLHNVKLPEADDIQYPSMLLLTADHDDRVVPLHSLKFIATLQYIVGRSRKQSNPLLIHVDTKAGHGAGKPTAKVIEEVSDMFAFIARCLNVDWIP
Description: as §1

DPPIV = DPPIV (Homo sapiens (Human), UniProt P27487); assay: DPPIV inhibition assay (recombinant enzyme, H-Gly-Pro-AMC substrate)
Chain of DPPIV (P27487 whole entry): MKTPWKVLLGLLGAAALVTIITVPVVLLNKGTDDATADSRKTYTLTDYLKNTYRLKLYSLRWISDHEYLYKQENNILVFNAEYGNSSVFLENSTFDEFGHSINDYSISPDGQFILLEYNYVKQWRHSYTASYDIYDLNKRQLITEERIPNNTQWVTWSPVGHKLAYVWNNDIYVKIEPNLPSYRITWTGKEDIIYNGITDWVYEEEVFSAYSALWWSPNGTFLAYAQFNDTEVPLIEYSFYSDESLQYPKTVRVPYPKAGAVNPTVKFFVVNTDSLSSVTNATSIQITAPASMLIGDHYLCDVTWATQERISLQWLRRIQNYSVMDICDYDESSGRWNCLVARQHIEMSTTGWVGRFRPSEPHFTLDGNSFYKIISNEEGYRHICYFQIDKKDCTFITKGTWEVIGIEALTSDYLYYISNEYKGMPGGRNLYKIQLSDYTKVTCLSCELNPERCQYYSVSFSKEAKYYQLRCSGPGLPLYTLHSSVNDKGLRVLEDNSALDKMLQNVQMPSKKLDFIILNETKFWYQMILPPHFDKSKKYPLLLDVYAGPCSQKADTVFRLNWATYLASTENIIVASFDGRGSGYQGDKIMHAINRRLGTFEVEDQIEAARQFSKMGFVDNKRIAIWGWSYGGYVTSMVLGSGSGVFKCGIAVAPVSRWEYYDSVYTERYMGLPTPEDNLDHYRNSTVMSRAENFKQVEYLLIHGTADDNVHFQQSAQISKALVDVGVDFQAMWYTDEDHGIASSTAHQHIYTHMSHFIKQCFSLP
Description: as §1

PSMA = PSMA (Homo sapiens (Human), UniProt Q04609); assay: PSMA competitive inhibition assay (NAAG substrate, LNCaP cell lysate); conditions: for pKi: read-out: PSMA Ki
Chain of PSMA (Q04609 whole entry): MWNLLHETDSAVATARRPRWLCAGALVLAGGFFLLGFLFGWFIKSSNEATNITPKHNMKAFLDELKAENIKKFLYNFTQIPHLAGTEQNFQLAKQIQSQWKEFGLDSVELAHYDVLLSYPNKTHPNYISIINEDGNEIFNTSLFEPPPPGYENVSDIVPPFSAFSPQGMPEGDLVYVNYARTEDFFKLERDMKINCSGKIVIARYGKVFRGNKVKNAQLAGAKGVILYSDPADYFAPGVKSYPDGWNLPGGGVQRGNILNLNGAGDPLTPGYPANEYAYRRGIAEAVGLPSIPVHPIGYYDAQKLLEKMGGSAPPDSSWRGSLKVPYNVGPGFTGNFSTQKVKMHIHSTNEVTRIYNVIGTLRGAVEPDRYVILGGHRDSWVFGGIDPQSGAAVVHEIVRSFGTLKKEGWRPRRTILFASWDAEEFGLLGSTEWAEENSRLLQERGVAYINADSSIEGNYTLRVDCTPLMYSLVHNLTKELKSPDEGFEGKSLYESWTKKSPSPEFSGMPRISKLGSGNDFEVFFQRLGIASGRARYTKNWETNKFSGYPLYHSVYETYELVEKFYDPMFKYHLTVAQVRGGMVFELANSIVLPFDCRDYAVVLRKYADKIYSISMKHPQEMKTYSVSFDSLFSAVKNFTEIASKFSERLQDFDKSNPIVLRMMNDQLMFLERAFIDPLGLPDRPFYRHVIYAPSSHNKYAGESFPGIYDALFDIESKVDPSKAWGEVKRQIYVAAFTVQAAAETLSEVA
Description: as §1

Chain of FAP (Q12884 whole entry): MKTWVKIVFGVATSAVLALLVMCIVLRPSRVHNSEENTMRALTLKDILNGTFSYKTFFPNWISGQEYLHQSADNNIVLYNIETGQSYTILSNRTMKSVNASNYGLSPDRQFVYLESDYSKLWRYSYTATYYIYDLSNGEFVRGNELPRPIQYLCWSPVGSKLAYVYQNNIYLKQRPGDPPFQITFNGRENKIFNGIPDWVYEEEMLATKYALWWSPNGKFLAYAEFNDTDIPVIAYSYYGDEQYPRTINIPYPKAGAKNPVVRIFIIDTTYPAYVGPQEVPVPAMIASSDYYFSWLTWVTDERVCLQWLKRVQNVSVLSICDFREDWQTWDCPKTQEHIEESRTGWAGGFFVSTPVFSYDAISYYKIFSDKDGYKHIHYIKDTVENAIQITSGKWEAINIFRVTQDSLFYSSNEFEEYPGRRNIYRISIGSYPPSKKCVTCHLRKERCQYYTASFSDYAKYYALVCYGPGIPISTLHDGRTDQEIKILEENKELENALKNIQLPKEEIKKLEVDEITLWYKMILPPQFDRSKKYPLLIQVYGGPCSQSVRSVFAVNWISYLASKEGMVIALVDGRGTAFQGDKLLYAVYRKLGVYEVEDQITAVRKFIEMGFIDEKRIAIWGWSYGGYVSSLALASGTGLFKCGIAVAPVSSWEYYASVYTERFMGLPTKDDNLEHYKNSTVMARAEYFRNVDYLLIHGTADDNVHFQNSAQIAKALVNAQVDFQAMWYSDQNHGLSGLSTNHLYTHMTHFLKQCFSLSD

Compound	pIC50 (FAP; Table 3)	pKi (FAP; Table 3)	pIC50 (PREP; Table 3)	pIC50 (DPPIV; Table 3, read-out: DPPIV IC50)	other results
N#C[C@@H]1CCCN1C(=O)CNC(=O)c1ccnc2ccc(OCCF)cc12 [JHU1220470]	9.46	10.16	5.85	–	pIC50 (DPPIV): < 4.70
N#C[C@@H]1CCCN1C(=O)CNC(=O)c1ccnc2ccc(OCCCNC(=O)CNC(=O)[C@H](CCCCNC(=O)c3ccc(F)nc3)NC(=O)CN3CCN(CC(=O)O)CCN(CC(=O)O)CCN(CC(=O)O)CC3)cc12 [JHU1221804]	9.00	9.70	5.77	5.08	–
N#C[C@@H]1CCCN1C(=O)CNC(=O)c1ccnc2ccc(OCCCNC(=O)CCOCCOCCOCCOCCNC(=O)[C@H](CCCCNC(=O)c3ccc(F)nc3)NC(=O)CN3CCN(CC(=O)O)CCN(CC(=O)O)CCN(CC(=O)O)CC3)cc12 [JHU1221823]	9.23	9.92	6.62	5.13	–
N#C[C@@H]1CCCN1C(=O)CNC(=O)c1ccnc2ccc(OCCCNC(=O)CCc3cn(CCOCCOCCOCCC(=O)N[C@@H](CCCCNC(=O)CCC(C(=O)O)N4CCN(CC(=O)O)CCN(CC(=O)O)CCN(CC(=O)O)CC4)C(=O)NCCCCC(=O)N(CCCC[C@H](NC(=O)N[C@@H](CCC(=O)O)C(=O)O)C(=O)O)Cc4ccc(Br)cc4)nn3)cc12 (stereo partly shown) [SB-FAP-03]	–	–	–	–	pIC50 (FAP; Table 4): 8.47; pKi (FAP; Table 4): 9.17; pIC50 (PREP; Table 4): 5.86; pIC50 (DPPIV; Table 4, read-out: DPPIV IC50): 4.74; pIC50 (PSMA; Table 4): 7.84; pKi (PSMA; Table 4): 8.54
N#C[C@@H]1CCCN1C(=O)CNC(=O)c1ccnc2ccc(OCCCNC(=O)CCc3cn(CCCC[C@H](NC(=O)CN4CCN(CC(=O)O)CCN(CC(=O)O)CCN(CC(=O)O)CC4)C(=O)NCCCCCC(=O)N(CCCC[C@H](NC(=O)N[C@@H](CCC(=O)O)C(=O)O)C(=O)O)Cc4ccc(Br)cc4)nn3)cc12 [SB-FAP-06]	–	–	–	–	pIC50 (FAP; Table 4): 8.74; pKi (FAP; Table 4): 9.43; pIC50 (PREP; Table 4): 6.43; pIC50 (DPPIV; Table 4, read-out: DPPIV IC50): 4.85; pIC50 (PSMA; Table 4): 8.33; pKi (PSMA; Table 4): 9.03
N#C[C@@H]1CCCN1C(=O)CNC(=O)c1ccnc2ccc(OCCCNC(=O)CCc3cn(CCCC[C@H](NC(=O)CN4CCN(CC(=O)O)CCN(CC(=O)O)CC4)C(=O)NCCCCCC(=O)N(CCCC[C@H](NC(=O)N[C@@H](CCC(=O)O)C(=O)O)C(=O)O)Cc4ccc(Br)cc4)nn3)cc12 [SB-FAP-07]	–	–	–	–	pIC50 (FAP; Table 4): 9.19; pKi (FAP): 9.89; pKi (PREP): 6.68; pIC50 (PREP; Table 4): 5.97; pKi (DPPIV): 5.52; pIC50 (DPPIV; Table 4, read-out: DPPIV IC50): 4.93; pIC50 (PSMA; Table 4): 7.40; pKi (PSMA): 8.10
N#CC1CCCN1C(=O)CNC(=O)c1ccnc2ccc(OCCCNC(=O)CCc3cn(CCCC[C@H](NC(=O)CN4CCN(CC(=O)O)CCN(CC(=O)O)CC4)C(=O)NCCCOc4ccc5nccc(C(=O)NCC(=O)N6CCC[C@H]6C#N)c5c4)nn3)cc12 (stereo partly shown) [SB-FAP-09]	9.32	10.00	6.20	5.69	–
CC1(C)C(/C=C/C2=C(Oc3ccc(S(=O)(=O)O)cc3)C(=C/C=C3/N(CCCCS(=O)(=O)O)c4ccc(S(=O)(=O)O)cc4C3(C)C)/CCC2)=[N+](CCCCCC(=O)N[C@@H](CCCCn2cc(CCC(=O)NCCCOc3ccc4nccc(C(=O)NCC(=O)N5CCC[C@H]5C#N)c4c3)nn2)C(=O)NCCNC(=O)CCC(C(=O)O)N2CCN(CC(=O)O)CCN(CC(=O)O)CCN(CC(=O)O)CC2)c2ccc(S(=O)(=O)[O-])cc21 (stereo partly shown) [SB-FAP-10]	–	–	–	–	pIC50 (FAP; Table 4): 8.46; pKi (FAP; Table 4): 9.16; pIC50 (PREP; Table 4): 5.60; pIC50 (DPPIV; Table 4, read-out: DPPIV IC50): 4.92
N#C[C@@H]1CCCN1C(=O)CNC(=O)c1ccnc2ccc(OCCCNC(=O)CCc3cn(CCCC[C@H](NC(=O)c4ccc(F)nc4)C(=O)NCCNC(=O)CCC(C(=O)O)N4CCN(CC(=O)O)CCN(CC(=O)O)CCN(CC(=O)O)CC4)nn3)cc12 (stereo partly drawn) [SB-FAP-11, 2,2′,2″-(10-(1-Carboxy-4-((2-((S)-6-(4-(3-((3-((4-((2-((S)-2-cyanopyrrolidin-1-yl)-2-oxoethyl)carbamoyl)quinolin-6-yl)oxy)propyl)amino)-3-oxopropyl)-1H-1,2,3-triazol-1-yl)-2-(6-fluoronicotinamido)hexanamido)ethyl)amino)-4-oxobutyl)-1,4,7,10-tetraazacyclododecane-1,4,7-triyl)triacetic acid]	9.46	10.15	6.29	5.02	–
N#CC1CCCN1C(=O)CNC(=O)c1ccnc2ccc(OCCCNC(=O)CCc3cn(CC[C@H](NC(=O)CN4CCN(CC(=O)O)CCN(CC(=O)O)CC4)C(=O)NCCCCCC(=O)NCCCC[C@H](NC(=O)N[C@@H](CC(=O)O)C(=O)O)C(=O)O)nn3)cc12 (stereo partly shown) [SRI-07-42]	–	–	–	–	pIC50 (FAP; Table 4): 8.65; pKi (FAP; Table 4): 9.35; pIC50 (PREP; Table 4): 4.95; pIC50 (DPPIV; Table 4, read-out: DPPIV IC50): 5.00; pIC50 (PSMA; Table 4): 5.33; pKi (PSMA; Table 4): 6.03

More lines, main results first:

pIC50 (FAP; Table 3)	pKi (FAP; Table 3)	pIC50 (PREP; Table 3)	pIC50 (DPPIV; Table 3, read-out: DPPIV IC50)	Compound	other results
9.04	9.74	7.02	< 4.70	N#C[C@@H]1CCCN1C(=O)CNC(=O)c1ccnc2cccc(F)c12 [JHU1219438]	–
9.51	10.21	7.33	5.46	N#C[C@@H]1CC(F)(F)CN1C(=O)CNC(=O)c1ccnc2ccc(F)cc12 [JHU1220466]	–
9.13	9.83	7.94	5.60	N#C[C@@H]1C[C@H](F)CN1C(=O)CNC(=O)c1ccnc2ccc(F)cc12 [JHU1220471]	–
8.66	9.36	6.28	< 4.70	N#C[C@@H]1CCCN1C(=O)CNC(=O)c1ccnc2cc(F)ccc12 [JHU1220501]	–
8.30	9.00	7.07	< 4.70	N#C[C@@H]1CCCN1C(=O)CNC(=O)c1ccnc2c(F)cccc12 [JHU1220502]	–
6.65	7.35	6.16	< 4.70	N#C[C@@H]1CCCN1C(=O)CNC(=O)c1c(F)cnc2ccccc12 [JHU1220503]	–
8.85	9.55	< 2.70	3.08	N#C[C@@H]1CCCN1C(=O)CNC(=O)c1ccnc2ccc(OCCCN(Cc3ccc(I)cc3)C(=O)CN3CCN(CC(=O)O)CCN(CC(=O)O)CCN(CC(=O)O)CC3)cc12 [JHU1220627]	–
8.92	9.62	5.16	5.10	N#C[C@@H]1CCCN1C(=O)CNC(=O)c1ccnc2ccc(OCCCNC(=O)[C@@H](CC(=O)O)NC(=O)[C@@H](CC(=O)O)NC(=O)c3cccc(F)n3)cc12 [JHU1221708]	–
8.68	9.38	4.66	4.90	N#C[C@@H]1CCCN1C(=O)CNC(=O)c1ccnc2ccc(OCCCN(Cc3ccc(F)nc3)C(=O)CN3CCN(CC(=O)O)CCN(CC(=O)O)CCN(CC(=O)O)CC3)cc12 [JHU1221709]	–
8.88	9.59	4.06	4.75	N#C[C@@H]1CCCN1C(=O)CNC(=O)c1ccnc2ccc(OCCCNC(=O)[C@@H](CC(=O)O)NC(=O)[C@@H](CC(=O)O)NC(=O)c3ccc(F)nc3)cc12 [JHU1221785]	–
8.85	9.55	5.96	5.21	N#C[C@@H]1CCCN1C(=O)CNC(=O)c1ccnc2ccc(OCCOCCNC(=O)[C@H](CCCCNC(=O)c3ccc(F)nc3)NC(=O)CN3CCN(CC(=O)O)CCN(CC(=O)O)CCN(CC(=O)O)CC3)cc12 [JHU1221803]	–
